Read-outs that look alike come from different tables or passages of the source.
Test system: ATF4 luciferase reporter in HEK293T cells
Test: ATF4-Luc assay, HEK293T cells carrying the ATF4 luciferase reporter (in vitro model of VWMD)
Format: cell-based
Settings: Homo sapiens, HEK-293T, read-out: ATF4-Luc EC50
Experimental: In order to test exemplary compounds of the invention in a cellular context, a stable VWMD cell line was first constructed. The ATF4 reporter was prepared by fusing the human full-length ATF4 5′-UTR (NCBI Accession No. BC022088.2) in front of the firefly luciferase (FLuc) coding sequence lacking the initiator methionine as described in Sidrauski et al (eLife 2013). The construct was used to produce recombinant retroviruses using standard methods and the resulting viral supernatant was used to transduce HEK293T cells, which were then subsequently selected with puromycin to generate a stable cell line.
HEK293T cells carrying the ATF4 luciferase reporter were plated on polylysine coated 384-well plates (Greiner Bio-one) at 30,000 cells per well. Cells were treated the next day with 1 μg/mL tunicamycin and 200 nM of a compound of Formula (I) for 7 hours. Luminescence was measured using One Glo (Promega) as specified by the manufacturer. Cells were maintained in DMEM with L-glutamine supplemented with 10% heat-inactivated FBS (Gibco) and Antibiotic-Antimycotic solution (Gibco).

[1] = HEK293T ATF4 luciferase reporter cells, 1 μg/mL tunicamycin, 7 hours

How did the EC50 [1] turn out when `N#Cc1cc(OCC(=O)NC23CC(NC(=O)COc4ccc5c(c4)OC(F)(F)O5)(C2)C3)ccn1` [Compound 270, 2-[(2-cyanopyridin-4-yl)oxy]-N-(3-{2-[(2,2-difluoro-2H-1,3-benzodioxol-5-yl)oxy]acetamido}bicyclo[1.1.1]pentan-1-yl)acetamide] was run?
The EC50 was 0.25 to 500 µM.

With `O=C(COc1ccc(Cl)c(F)c1)NC12CC(NC(=O)CC(=O)c3ccc(Cl)cc3)(C1)C2` [Compound 293, N-{3-[2-(4-chloro-3-fluorophenoxy)acetamido]bicyclo[1.1.1]pentan-1-yl}-3-(4-chlorophenyl)-3-oxopropanamide] as the compound, how does the EC50 [1] read?
Its EC50 is 0.25 to 500 µM.

For `Cc1cc(Cl)ncc1OCC(=O)NC12CC(NC(=O)COc3ccc(Cl)c(F)c3)(C1)C2` [Compound 243, 2-(4-chloro-3-fluorophenoxy)-N-(3-{2-[(6-chloro-4-methylpyridin-3-yl)oxy]acetamido}bicyclo[1.1.1]pentan-1-yl)acetamide], which EC50 [1] is on record?
The EC50 was 0.25 to 500 µM.

Which EC50 [1] does the source give for `O=C(COc1ccc(Cl)c(F)c1)NC12CCC(NC(=O)COc3ccnn(CC(F)(F)F)c3=O)(CC1)C(O)C2` (stereo not shown) [Compound 333, 2-(4-chloro-3-fluorophenoxy)-N-[3-hydroxy-4-(2-{[3-oxo-2-(2,2,2-trifluoroethyl)-2,3-dihydropyridazin-4-yl]oxy}acetamido)bicyclo[2.2.2]octan-1-yl]acetamide] here?
The EC50 was 0.25 to 500 µM.

`O=C(COCc1ccc(OC(F)F)nc1)NC12CC(NC(=O)COc3ccc(Cl)c(F)c3)(C1)C2` [Compound 279, 2-(4-chloro-3-fluorophenoxy)-N-[3-(2-{[6-(difluoromethoxy)pyridin-3-yl]methoxy}acetamido)bicyclo[1.1.1]pentan-1-yl]acetamide] was tested. Which EC50 [1] did it give?
Its EC50 is 0.25 to 500 µM.

For `O=C(COCCc1ccc(Cl)cc1)NC12CC(NC(=O)COc3ccc(Cl)c(F)c3)(C1)C2` [Compound 135, 2-(4-chloro-3-fluorophenoxy)-N-(3-{2-[2-(4-chlorophenyl)ethoxy]acetamido}-bicyclo[1.1.1]pentan-1-yl)acetamide], which EC50 [1] is on record?
The EC50 was 0.25 to 500 µM.

`Cc1cccc(CCOCC(=O)NC23CC(NC(=O)COc4ccc(Cl)c(F)c4)(C2)C3)c1` [Compound 136, 2-(4-chloro-3-fluorophenoxy)-N-(3-{2-[2-(3-methylphenyl)ethoxy]acetamido}-bicyclo[1.1.1]pentan-1-yl)acetamide] was tested. Which EC50 [1] did it give?
Its EC50 is 0.25 to 500 µM.

`O=C(COc1ccc(C(F)F)cc1)NC12CC(NC(=O)COc3ccc(C(F)F)cc3)(C1)C2` [Compound 389, N,N′-(bicyclo[1.1.1]pentane-1,3-diyl)bis{2-[4-(difluoromethyl)phenoxy]acetamide}] was tested. Which EC50 [1] did it give?
Its EC50 is 0.25 to 500 µM.

For `N#Cc1cccc(COCC(=O)NC23CC(NC(=O)COc4ccc(Cl)c(F)c4)(C2)C3)c1` [Compound 138, 2-(4-chloro-3-fluorophenoxy)-N-(3-{2-[(3-cyanophenyl)methoxy]acetamido}-bicyclo[1.1.1]pentan-1-yl)acetamide], which EC50 [1] is on record?
The EC50 was 0.25 to 500 µM.

How did the EC50 [1] turn out when `O=C(COc1ccc(Cl)c(F)c1)NC12CCC(NC(=O)COc3ccc(C(F)(F)F)nc3)(CC1)[C@H](O)C2` (single isomer, unassigned) [Compound 302] was run?
The EC50 was less than 0.01 µM.

Which EC50 [1] does the source give for `O=C(COc1ccc(Cl)c(F)c1)NC12CCC(NCCOc3ccc(Cl)c(Cl)c3)(CC1)CC2O` (stereo not shown) [Compound 337, 2-(4-chloro-3-fluorophenoxy)-N-(4-{[2-(3,4-dichlorophenoxy)ethyl]amino}-2-hydroxybicyclo[2.2.2]octan-1-yl)acetamide] here?
Its EC50 is less than 0.01 µM.

`O=C(COc1ccc(Cl)c(F)c1)NC12CC(NC(=O)OCCCc3cccc(Cl)c3)(C1)C2` [Compound 166, 3-(3-chlorophenyl)propyl {3-[2-(4-chloro-3-fluorophenoxy)acetamido]-bicyclo[1.1.1]pentan-1-yl}carbamate] was tested. Which EC50 [1] did it give?
Its EC50 is 0.25 to 500 µM.

For `O=C(COc1ccc(Cl)c(F)c1)NC12CC(NC(=O)Oc3ccc(Cl)cc3)(C1)C2` [Compound 434, 4-chlorophenyl {3-[2-(4-chloro-3-fluorophenoxy)acetamido]bicyclo[1.1.1]pentan-1-yl}carbamate], which EC50 (7 h) is on record?
Its EC50 is 0.25 to 500 µM.

How did the EC50 [1] turn out when `O=C(COc1ccc(Cl)c(F)c1)NC12CC(NC(=O)COc3cnc4cc[nH]c4c3)(C1)C2` [Compound 254, 2-(4-chloro-3-fluorophenoxy)-N-(3-{2-[(1H-pyrrolo[3,2-b]pyridin-6-yl)oxy]acetamido}bicyclo[1.1.1]pentan-1-yl)acetamide] was run?
Its EC50 is 0.25 to 500 µM.

Which EC50 [1] does the source give for `O=C(COc1ccc(Cl)c(Cl)c1)NC12CC(NC(=O)OCCCc3cccc(Cl)c3)(C1)C2` [Compound 174, 3-(3-chlorophenyl)propyl {3-[2-(3,4-dichlorophenoxy)acetamido]-bicyclo[1.1.1]pentan-1-yl}carbamate] here?
Its EC50 is 0.25 to 500 µM.

Which EC50 [1] does the source give for `O=C(COc1ccc(Cl)c(F)c1)NC12CC(NC(=O)COc3ccnn3C3CC3)(C1)C2` [Compound 371, 2-(4-chloro-3-fluorophenoxy)-N-(3-{2-[(1-cyclopropyl-1H-pyrazol-5-yl)oxy]acetamido}bicyclo[1.1.1]pentan-1-yl)acetamide] here?
Its EC50 is 0.25 to 500 µM.

For `O=C(CCOc1cccc(Cl)c1)NC12CC(NC(=O)COc3ccc(Cl)c(Cl)c3)(C1)C2` [Compound 169, 3-(3-chlorophenoxy)-N-{3-[2-(3,4-dichlorophenoxy)acetamido]bicyclo-[1.1.1]pentan-1-yl}propanamide], which EC50 [1] is on record?
Its EC50 is 0.25 to 500 µM.

With `COc1cc(OC)nc(OCC(=O)NC23CCC(NC(=O)COc4ccc(Cl)c(F)c4)(CC2)C[C@@H]3O)n1` [Compound 498, 2-(4-chloro-3-fluorophenoxy)-N-[(3S)-4-{2-[(4,6-dimethoxypyrimidin-2-yl)oxy]acetamido}-3-hydroxybicyclo[2.2.2]octan-1-yl]acetamide] as the compound, how does the EC50 [1] read?
Its EC50 is 0.25 to 500 µM.

Which EC50 [1] does the source give for `O=C(COc1ccc2c(c1)OC(F)(F)O2)NC12CCC(NC(=O)COc3ccc4c(c3)OC(F)(F)O4)(C1)C2` [Compound 391, N,N′-(bicyclo[2.1.1]hexane-1,4-diyl)bis{2-[(2,2-difluoro-2H-1,3-benzodioxol-5-yl)oxy]acetamide}] here?
Its EC50 is 0.25 to 500 µM.

Which EC50 [1] does the source give for `CCc1cc(C)cc(OCC(=O)NC23CCC(NC(=O)COc4ccc(Cl)c(F)c4)(CC2)C[C@@H]3O)c1` [Compound 494, 2-(4-chloro-3-fluorophenoxy)-N-{(3S)-4-[2-(3-ethyl-5-methylphenoxy)acetamido]-3-hydroxybicyclo[2.2.2]octan-1-yl}acetamide] here?
The EC50 was 0.25 to 500 µM.

`COc1ccc(/C=C/C(=O)NC23CC(NC(=O)COc4ccc(Cl)c(F)c4)(C2)C3)cc1` [Compound 347, (2E)-N-{3-[2-(4-chloro-3-fluorophenoxy)acetamido]bicyclo[1.1.1]pentan-1-yl}-3-(4-methoxyphenyl)prop-2-enamide] was tested. Which EC50 [1] did it give?
The EC50 was 0.25 to 500 µM.

For `O=C(COc1ccc(Cl)c(F)c1)NC12CCC(NC(=O)COc3ccnc(C(F)(F)F)c3)(CC1)[C@@H](O)C2` (single isomer, unassigned) [Compound 318], which EC50 [1] is on record?
Its EC50 is 0.01 to 0.05 µM.

`O=C(COc1ccc(Cl)c(F)c1)NC12CCC(NC(=O)COc3ccc(C(F)(F)F)nc3)(CC1)[C@@H](F)C2` (single isomer, unassigned) [Compound 372] was tested. Which EC50 [1] did it give?
The EC50 was 0.05 to 0.25 µM.

`NCc1ccc(OCC(=O)NC23CC(NC(=O)COc4ccc(Cl)c(F)c4)(C2)C3)cn1` [Compound 259, 2-{[6-(aminomethyl)pyridin-3-yl]oxy}-N-{3-[2-(4-chloro-3-fluorophenoxy)acetamido]bicyclo[1.1.1]pentan-1-yl}acetamide] was tested. Which EC50 [1] did it give?
The EC50 was 0.25 to 500 µM.

For `O=C(COc1ccc(Cl)c(F)c1)NC12CCC(NC(=O)COc3ccc(F)cc3)(CC1)[C@@H](O)C2` [Compound 354, 2-(4-chloro-3-fluorophenoxy)-N-{(3S)-4-[2-(4-fluorophenoxy)acetamido]-3-hydroxybicyclo[2.2.2]octan-1-yl}acetamide], which EC50 [1] is on record?
The EC50 was less than 0.01 µM.

For `O=C(COc1ccc(Cl)c(F)c1)NC12CC(NCC(=O)c3ccc(Cl)c(F)c3)(C1)C2` [Compound 291, 2-(4-chloro-3-fluorophenoxy)-N-(3-{[2-(4-chloro-3-fluorophenyl)-2-oxoethyl]amino}bicyclo[1.1.1]pentan-1-yl)acetamide], which EC50 [1] is on record?
The EC50 was 0.25 to 500 µM.

Which EC50 [1] does the source give for `O=C(COc1ccc(Cl)c(F)c1)NC12CCC(NC(=O)COc3ncccn3)(CC1)[C@@H](O)C2` [Compound 500, 2-(4-chloro-3-fluorophenoxy)-N-[(3S)-3-hydroxy-4-{2-[(pyrimidin-2-yl)oxy]acetamido}bicyclo[2.2.2]octan-1-yl]acetamide] here?
The EC50 was greater than 2 µM.

With `O=C(COc1ccc(Cl)c(F)c1)NC12CCC(NC(=O)COc3ccc(C(F)(F)F)nc3)(CC1)[C@@H](F)C2` [Compound 373, 2-(4-chloro-3-fluorophenoxy)-N-[(3S)-3-fluoro-4-(2-{[6-(trifluoromethyl)pyridin-3-yl]oxy}acetamido)bicyclo[2.2.2]octan-1-yl]acetamide] as the compound, how does the EC50 [1] read?
The EC50 was 0.05 to 0.25 µM.

With `CC(C)(C)c1ccc(OCC(=O)NC23CCC(NC(=O)COc4ccc(Cl)c(F)c4)(CC2)C[C@@H]3O)cc1` [Compound 506, 2-(4-tert-butylphenoxy)-N-{(2S)-4-[2-(4-chloro-3-fluorophenoxy)acetamido]-2-hydroxybicyclo[2.2.2]octan-1-yl}acetamide] as the compound, how does the EC50 [1] read?
Its EC50 is 0.25 to 500 µM.

Which EC50 [1] does the source give for `N#Cc1ccc(COCC(=O)NC23CC(NC(=O)COc4ccc(Cl)c(F)c4)(C2)C3)cc1` [Compound 139, 2-(4-chloro-3-fluorophenoxy)-N-(3-{2-[(4-cyanophenyl)methoxy]acetamido}-bicyclo[1.1.1]pentan-1-yl)acetamide] here?
The EC50 was 0.25 to 500 µM.

Which EC50 [1] does the source give for `CC(O)(c1ccc(OCC(=O)NC23CC(NC(=O)COc4ccc(Cl)c(F)c4)(C2)C3)cc1)C(F)(F)F` (stereo not shown) [Compound 413, 2-(4-chloro-3-fluorophenoxy)-N-(3-{2-[4-(1,1,1-trifluoro-2-hydroxypropan-2-yl)phenoxy]acetamido}bicyclo[1.1.1]pentan-1-yl)acetamide] here?
The EC50 was 0.25 to 500 µM.
